In US20240190855A1 (Relay Therapeutics, Inc., priority 2021, published 2024) one finds IC50 data, which are given here for 51 compounds.

Bounds are passed on as bounds.

The target in the test is T1, CDK2/Cyclin E complex (Homo sapiens, UniProt P24941).
T1 construct: purchased Eurofins 14-475
Kind of test: CDK2/Cyclin E fluorescence-based microfluidic mobility shift assay (CDK2 Biochemical Caliper Assay). Particulars: read-out: Biochemical CDK2/CyclinE Caliper IC50. The essentials:
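Microfluidic mobility-shift readout after EDTA termination measured phosphorylation of fluorescent FL Peptide 18 (1.5 uM final) in a 20 hr room-temperature reaction. Compounds were tested at 11 concentrations (3-fold).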
Turning to `COCc1nc2ccnc(Nc3cc([C@@H]4C[C@H](OC(=O)NC(C)C)CO4)[nH]n3)c2s1` (single isomer, unassigned) [Example 466], the IC50 was at most 100 nM.
As for `COCc1nc2ccnc(Nc3cc([C@H]4C[C@@H](OC(=O)NC(C)C)CO4)[nH]n3)c2s1` (single isomer, unassigned) [Example 467], the IC50 lay in the range of 100 to 250 nM.
The figure for `Cc1cc(CC(=O)Nc2cc([C@H]3CC[C@@H](OC(=O)[C@@H](N)C(C)C)C3)[nH]n2)on1` (single isomer, unassigned) [Example 468] is 100 to 250 nM; for `Cc1cc(CC(=O)Nc2cc([C@@H]3CC[C@H](OC(=O)[C@@H](N)C(C)C)C3)[nH]n2)on1` (single isomer, unassigned) [Example 469] it is 250 to 1000 nM.
Then `COCc1cc(C(=O)Nc2cc([C@H]3CC[C@@H](Oc4nnccc4C4CC4)C3)[nH]n2)n(C)n1` (single isomer, unassigned) [Example 470], with at most 100 nM.
Then `COCc1cc(C(=O)Nc2cc([C@@H]3CC[C@H](Oc4nnccc4C4CC4)C3)[nH]n2)n(C)n1` (single isomer, unassigned) [Example 471], with at most 100 nM.
On to `COCc1cc(C(=O)Nc2cc([C@H]3CC[C@@H](Oc4cccnc4C(C)C)C3)[nH]n2)n(C)n1` (single isomer, unassigned) [Example 472], for which the IC50 was 100 to 250 nM.
The figure for `COCc1cc(C(=O)Nc2cc([C@@H]3CC[C@H](Oc4cccnc4C(C)C)C3)[nH]n2)n(C)n1` (single isomer, unassigned) [Example 473] is 100 to 250 nM; for `COCc1cc(C(=O)Nc2cc([C@H]3CC[C@@H](Oc4nnccc4-c4ccccc4)C3)[nH]n2)n(C)n1` (single isomer, unassigned) [Example 474] it is 100 to 250 nM; for `COCc1cc(C(=O)Nc2cc([C@@H]3CC[C@H](Oc4nnccc4-c4ccccc4)C3)[nH]n2)n(C)n1` (single isomer, unassigned) [Example 475] it is at most 100 nM.
In the case of `COCc1cc(C(=O)Nc2cc([C@H]3CC[C@@H](Oc4nnccc4C(F)(F)F)C3)[nH]n2)n(C)n1` (single isomer, unassigned) [Example 476], the IC50 is at most 100 nM.
The figure for `COCc1cc(C(=O)Nc2cc([C@@H]3CC[C@H](Oc4nnccc4C(F)(F)F)C3)[nH]n2)n(C)n1` (single isomer, unassigned) [Example 477] is at most 100 nM; for `COCc1cc(C(=O)Nc2cc([C@@H]3CC[C@H](Oc4c(C)ccnc4C)C3)[nH]n2)n(C)n1` (single isomer, unassigned) [Example 478] it is 1000 to 100000 nM; for `COCc1cc(C(=O)Nc2cc([C@H]3CC[C@@H](Oc4c(C)ccnc4C)C3)[nH]n2)n(C)n1` (single isomer, unassigned) [Example 479] it is 1000 to 100000 nM.
Regarding `COCc1cc2c(Nc3cc([C@H]4CC[C@@H](OC(=O)NC(C)C)C4)[nH]n3)nccn2n1` (single isomer, unassigned) [Example 480], the IC50 is at most 100 nM.
Then `COCc1cc2c(Nc3cc([C@@H]4CC[C@H](OC(=O)NC(C)C)C4)[nH]n3)nccn2n1` (single isomer, unassigned) [Example 481], with at most 100 nM; and `Cc1cc(CC(=O)Nc2cc([C@H]3CC[C@@H](NC(=O)[C@@H](O)C(C)C)C3)[nH]n2)on1` (single isomer, unassigned) [Example 482], with 1000 to 100000 nM; and `Cc1cc(CC(=O)Nc2cc([C@@H]3CC[C@H](NC(=O)[C@@H](O)C(C)C)C3)[nH]n2)on1` (single isomer, unassigned) [Example 483], with 250 to 1000 nM.
Then `Cc1ncccc1O[C@@H]1CC[C@H](c2cc(Nc3nccn4nccc34)n[nH]2)C1` (single isomer, unassigned) [Example 484], with 250 to 1000 nM; and `Cc1ncccc1O[C@H]1CC[C@@H](c2cc(Nc3nccn4nccc34)n[nH]2)C1` (single isomer, unassigned) [Example 485], with at most 100 nM.
In the case of `Cc1ncccc1O[C@@H]1CC[C@H](c2cc(Nc3ncnc4ncccc34)n[nH]2)C1` (single isomer, unassigned) [Example 486], the IC50 lay in the range of 1000 to 100000 nM.
As to `Cc1ncccc1O[C@H]1CC[C@@H](c2cc(Nc3ncnc4ncccc34)n[nH]2)C1` (single isomer, unassigned) [Example 487], the IC50 was at most 100 nM.
Then `COCc1cc(C(=O)Nc2cc([C@H]3CC[C@@H](Oc4cncnc4C)C3)[nH]n2)n(C)n1` (single isomer, unassigned) [Example 490], with 1000 to 100000 nM; and `COCc1cc(C(=O)Nc2cc([C@@H]3CC[C@H](Oc4cncnc4C)C3)[nH]n2)n(C)n1` (single isomer, unassigned) [Example 491], with 1000 to 100000 nM; and `COCc1cc(C(=O)Nc2cc([C@H]3CC[C@@H](Oc4cc(C(C)C)cnn4)C3)[nH]n2)n(C)n1` (single isomer, unassigned) [Example 492], with at most 100 nM.
Then `COCc1cc(C(=O)Nc2cc([C@@H]3CC[C@H](Oc4cc(C(C)C)cnn4)C3)[nH]n2)n(C)n1` (single isomer, unassigned) [Example 493], with 100 to 250 nM; and `COCc1cc(C(=O)Nc2cc([C@H]3CC[C@@H](Oc4nccnc4C)C3)[nH]n2)n(C)n1` (single isomer, unassigned) [Example 494], with 250 to 1000 nM; and `COCc1cc(C(=O)Nc2cc([C@@H]3CC[C@H](Oc4nccnc4C)C3)[nH]n2)n(C)n1` (single isomer, unassigned) [Example 495], with 250 to 1000 nM.
Turning to `c1cncc(O[C@@H]2CC[C@H](c3cc(Nc4ncnc5ncccc45)n[nH]3)C2)c1` (single isomer, unassigned) [Example 498], the IC50 fell in the range of 1000 to 100000 nM.
The figure for `c1cncc(O[C@H]2CC[C@@H](c3cc(Nc4ncnc5ncccc45)n[nH]3)C2)c1` (single isomer, unassigned) [Example 499] is 250 to 1000 nM.
The figure for `CC(C)NC(=O)O[C@@H]1CC[C@H](c2cc(Nc3nccn4nc(C(F)(F)F)cc34)n[nH]2)C1` (single isomer, unassigned) [Example 500] is at most 100 nM; for `CC(C)NC(=O)O[C@H]1CC[C@@H](c2cc(Nc3nccn4nc(C(F)(F)F)cc34)n[nH]2)C1` (single isomer, unassigned) [Example 501] it is at most 100 nM; for `COCc1cc(C(=O)Nc2cc([C@H]3CC[C@@H](Oc4nccnc4C(F)F)C3)[nH]n2)n(C)n1` (single isomer, unassigned) [Example 502] it is 1000 to 100000 nM.
The figure for `COCc1cc(C(=O)Nc2cc([C@@H]3CC[C@H](Oc4cccnc4C(F)F)C3)[nH]n2)n(C)n1` (single isomer, unassigned) [Example 503] is 1000 to 100000 nM; for `c1cncc(O[C@@H]2CC[C@H](c3cc(Nc4nccn5nccc45)n[nH]3)C2)c1` (single isomer, unassigned) [Example 504] it is 1000 to 100000 nM.
With `c1cncc(O[C@H]2CC[C@@H](c3cc(Nc4nccn5nccc45)n[nH]3)C2)c1` (single isomer, unassigned) [Example 505], the IC50 is at most 100 nM.
Turning to `COCc1cc(C(=O)Nc2cc([C@H]3CC[C@@H](Oc4ncccc4C(C)C)C3)[nH]n2)n(C)n1` (single isomer, unassigned) [Example 506], the IC50 is at most 100 nM.
The figure for `COCc1cc(C(=O)Nc2cc([C@@H]3CC[C@H](Oc4ncccc4C(C)C)C3)[nH]n2)n(C)n1` (single isomer, unassigned) [Example 507] is at most 100 nM; for `COCc1cc(C(=O)Nc2cc([C@H]3CC[C@@H](Oc4nccnc4C(C)C)C3)[nH]n2)n(C)n1` (single isomer, unassigned) [Example 508] it is at most 100 nM.
Then `CCc1ccnnc1O[C@@H]1CC[C@H](c2cc(NC(=O)c3cc(COC)nn3C)n[nH]2)C1` (single isomer, unassigned) [Example 509], with at most 100 nM; and `CCc1ccnnc1O[C@H]1CC[C@@H](c2cc(NC(=O)c3cc(COC)nn3C)n[nH]2)C1` (single isomer, unassigned) [Example 510], with at most 100 nM; and `COCc1cc2c(Nc3cc([C@H]4CC[C@@H](Oc5cccnc5C)C4)[nH]n3)nccn2n1` (single isomer, unassigned) [Example 511], with 1000 to 100000 nM.
The figure for `COCc1cc2c(Nc3cc([C@@H]4CC[C@H](Oc5cccnc5C)C4)[nH]n3)nccn2n1` (single isomer, unassigned) [Example 512] is 100 to 250 nM.
Consider `COCc1cc2c(Nc3cc([C@H]4CC[C@@H](Oc5cccnc5)C4)[nH]n3)nccn2n1` (single isomer, unassigned) [Example 525], for which the IC50 lay in the range of 1000 to 100000 nM.
The figure for `COCc1cc2c(Nc3cc([C@@H]4CC[C@H](Oc5cccnc5)C4)[nH]n3)nccn2n1` (single isomer, unassigned) [Example 526] is 100 to 250 nM; for `CC(C)NC(=O)O[C@@H]1CC[C@H](c2cc(Nc3ccc4c(n3)C(C)(C)NC4=O)n[nH]2)C1` (single isomer, unassigned) [Example 527] it is at most 100 nM.
Regarding `CC(C)NC(=O)O[C@H]1CC[C@@H](c2cc(Nc3ccc4c(n3)C(C)(C)NC4=O)n[nH]2)C1` (single isomer, unassigned) [Example 528], the IC50 is at most 100 nM.
Then `CNC(=O)O[C@@H]1CC[C@H](c2cc(Nc3ccc4c(n3)C(C)(C)NC4=O)n[nH]2)C1` (single isomer, unassigned) [Example 529], with at most 100 nM; and `CNC(=O)O[C@H]1CC[C@@H](c2cc(Nc3ccc4c(n3)C(C)(C)NC4=O)n[nH]2)C1` (single isomer, unassigned) [Example 530], with at most 100 nM.
The figure for `COCc1cc(C(=O)Nc2cc([C@@H]3CC[C@H](Oc4nccnc4C(C)C)C3)[nH]n2)n(C)n1` (single isomer, unassigned) [Example 531] is at most 100 nM.
Regarding `COCc1cc(C(=O)Nc2cc([C@H]3CC[C@@H](Oc4nncc5cnccc45)C3)[nH]n2)n(C)n1` (single isomer, unassigned) [Example 534], the IC50 was at most 100 nM.
